Patent US12553041B2, “Formulations and doses of pegylated uricase” (Cartesian Therapeutics Inc., priority 2019, dated 2026)
Several values for one entry are separate records, joined by “and”; a condition that tells them apart may be missing. Equal entries are not always repeated. Where two headings read alike, the source gives them in different places.

Tests used:
[1] = test system: patients with hyperuricemia and gout; settings: cited from earlier work; for Subjects that required treatment for at least one gout flare: first 8 weeks, with gout flare prophylaxis; for Flares per patient month (flare frequency): worked out from literature data
[2] = test system: patients with gout; settings: cited from earlier work; for Patients with gout flares requiring treatment in a month: colchicine prophylaxis; for Flares per patient month (flare frequency): worked out from literature data
[3] = test system: mice genetically deficient in endogenous uricase; assay: Proof of concept study in uricase deficient mice; assay type: in vivo
Procedure: A pharmacology study in mice that were genetically deficient in endogenous uricase was conducted. The study evaluated the efficacy of a dose regimen consisting of three immunizations with SEL 212 followed by doses of pegsiticase alone in preventing the formation of ADAs to pegsiticase. The treatment period consisted of the first 14 days of the study. In the study, mice were separated into three treatment groups. During the treatment period: • the first group, referred to as the Untreated Group, received no treatment; • the second group, referred to as the Pegsiticase Group, was treated with pegsiticase alone; and • the third group, referred to as the SVP Rapamycin+Pegsiticase Group, was treated with SVP Rapamycin co administered with pegsiticase.
The Pegsiticase Group and SVP Rapamycin+Pegsiticase Group were treated on days zero, seven and 14 of the treatment period. Each group was then treated with pegsiticase alone on days 35 and 42 of the study, or the challenge period. Uricase specific ADA levels were recorded to determine the formation of ADAs to pegsiticase. Uric acid levels were measured to determine effectiveness of SVP Rapamycin co administered with pegsiticase in lowering uric acid levels below 6 mg/dl, which is the treatment target for gout patients.

[4] = test system: patients with serum uric acid levels greater than 6 mg/dl; assay: Phase 1b clinical trial, SVP Rapamycin alone, pegsiticase alone or SEL 212
Procedure: The Phase 1b clinical trial enrolled 63 patients with serum uric acid levels greater than 6 mg/dl separated into 11 cohorts. A single intravenous infusion of SVP Rapamycin alone at the following ascending dose levels was administered to four cohorts in ascending order. Each cohort consisted of seven patients and were designated as follows: Cohort #1 (0.03 mg/kg), Cohort #3 (0.1 mg/kg), Cohort #5 (0.3 mg/kg) and Cohort #7 (0.5 mg/kg) collectively the SVP Rapamycin Cohorts. After a cohort of the SVP-Rapamycin alone had successfully and safely been dosed the corresponding dose level of SVP Rapamycin was combined with a fixed dose of pegsiticase (0.4 mg/kg). The combination was co-administered sequentially as a single intravenous infusion, with the SVP Rapamycin infusion preceding the pegsiticase infusion. The cohort designation is as follows for the six cohorts (5 patients per cohort), which were Cohort #2 (SVP Rapamycin 0.03 mg/kg+0.4 mg/kg pegsiticase), Cohort #4 (SVP Rapamycin 0.1 mg/kg+0.4 mg/kg pegsiticase), Cohort #6 (SVP Rapamycin 0.3 mg/kg+0.4 mg/kg pegsiticase), Cohort #10 (0.4 mg/kg pegsiticase+0.03 mg/kg SVP Rapamycin separated by 48 hours), Cohort #12 (SVP Rapamycin 0.15 mg/kg+0.4 mg/kg pegsiticase) and Cohort #14 (SVP Rapamycin 0.1 mg/kg+0.4 mg/kg pegsiticase) collectively the SEL 212 Cohorts. In Cohort #9 a fixed amount of pegsiticase alone at a dose level of 0.4 mg/kg was administered to five patients, which is referred to as the Pegsiticase Cohort. […] The subjects were monitored during a 30 day period post infusion with visits occurring on day 7, 14,21 and the end of trial visit on day 30. Blood and serum of each patient was evaluated for serum uric acid, ADAs (specifically anti-PEG, anti-uricase and anti-pegsiticase) and safety parameters. The primary objective of the Phase 1b clinical trial was to evaluate the safety and tolerability of SVP Rapamycin alone and in combination with a fixed dose of pegsiticase. A secondary clinical objective was to evaluate the ability of SVP Rapamycin co-administered with pegsiticase to reduce serum uric acid levels and mitigate the formation of uricase specific ADAs when compared to administration of pegsiticase alone.

[5] = test system: anti-uricase IgG; assay: Anti-uricase antibody titer by sandwich ELISA, monthly dosing in symptomatic gout patients; assay type: in vivo, human
Procedure: Safety, tolerability, sUA, ADAs, and uricase activity were monitored.
In this example, “responder” indicates an individual with serum uric acid values […] and serum uric acid ≤1 mg/dL on day 21 (stopping rule). In this example, a “non-responder” is a subject having serum uric acid levels ≥6 mg/dL at any time during a 28 day dosing cycle. The “maximum titer” is the maximum titer observed during a 28 day dosing cycle.
Anti-uricase antibodies were detected using a sandwich ELISA. […] Uricase activity was measured fluorometrically.

[6] = test system: uricase activity; settings: human, in vivo
Procedure: Methods: Patients with symptomatic gout (≥1 tophus, gout flare within 6 months or gouty arthropathy) and elevated SUA ≥6 mg/dL were treated with fixed doses of the pegylated uricase (0.2 mg/kg) in combination with SEL-110 (0.1 and 0.15 mg/kg), or the pegylated uricase (0.2 or 0.4 mg/kg) alone as a control. Patients were infused in 28-day cycles up to 5 times. Safety, tolerability, sUA, ADAs, and uricase activity were monitored.
Uricase activity was measured fluorometrically. As uricase converts uric acid into allantoin and H2O2, horseradish peroxidase was added and reached with H2O2 and a fluorescent probe to yield a quantifiable signal.

[7] = test system: nonhuman primates; assay: Proof of concept study in nonhuman primates, uricase specific ADAs; assay type: in vivo; settings: pegsiticase alone, five monthly doses; by the end of the study
Procedure: A preclinical study to evaluate the ability of SVP Rapamycin to mitigate the formation of uricase specific ADAs in nonhuman primates was also conducted. As depicted in FIG. 3, during the study: • pegsiticase was administered alone, referred to as the Empty Nanoparticle Group, or • was co-administered with one of two dose levels of SVP Rapamycin, referred to as the SVP Rapamycin 0.1× and SVP Rapamycin 1× Groups, respectively. The SVP Rapamycin 0.1× Group received a dose level of SVP Rapamycin of 0.3 mg/kg and the SVP Rapamycin 1× Group received a dose level of SVP Rapamycin of 3 mg/kg.
The Empty Nanoparticle Group received three monthly doses of pegsiticase and each of the SVP Rapamycin 0.1× Group and SVP Rapamycin 1× Group received three monthly doses of pegsiticase co-administered with SVP Rapamycin. All groups then received two monthly doses of pegsiticase alone. The SVP Rapamycin 0.1× Group received one tenth of the dose administered in the SVP Rapamycin 1× Group.

[8] = test system: subjects with elevated serum uric acid levels greater than 6 mg/dl; assay: Phase 1a clinical trial, single intravenous infusion of pegsiticase alone; assay type: in vivo
Procedure: The Phase 1a clinical trial for SEL 212 was an ascending dose trial of pegsiticase alone in 22 subjects with elevated serum uric acid levels greater than 6 mg/dl who were separated into five cohorts. Each cohort received a single intravenous infusion of pegsiticase at the following dose levels of 0.1 mg/kg for Cohort #1, 0.2 mg/kg for Cohort #2, 0.4 mg/kg for Cohort #3, 0.8 mg/kg for Cohort #4 and 1.2 mg/kg for Cohort #5. Dosing began with the lowest dose and only after an entire cohort was safely dosed was the next cohort started.
FIG. 4 depicts average serum uric acid levels of the Phase 1a clinical trial's five cohorts tested at different measurement intervals (Day 7, 14, 21 and 30) during the course of the 30 day period following the single intravenous infusion of pegsiticase at the outset of the trial.
The serum uric acid levels were measured at baseline and days seven, 14, 21 and 30 and uricase specific ADA levels at baseline and days seven, 14 and 30 following a single intravenous injection of pegsiticase. Uricase specific ADA levels at day 21 in the Phase 1a clinical trial were not measured. Based on the results from the Phase 1a clinical trial, it was observed that pegsiticase at a tolerated dose is capable of achieving and maintaining a reduction of serum uric acid below the target of 6 mg/dl for a 30 day period in the absence of inhibitory uricase specific ADAs.

[9] = test system: patients with refractory gout; settings: cited from earlier work; for Flares per patient month (flare frequency): worked out from literature data; for Mean uric acid levels at four weeks: monthly dosing

Q: For `Cc1nc(-c2ccc(OCC(C)C)c(C#N)c2)sc1C(=O)O` [Febuxostat, febuxostat], which “Subjects that required treatment for at least one gout flare” value ([1]; 80 mg/day, out of 255 subjects) is on record?
A: 55

Q: And the “Flares per patient month (flare frequency)” value (from here on “Flares per patient month”) ([1]; 80 mg/day)?
A: 0.22 flares per patient month

Q: And the “Flares per patient month” value ([1]; 80 mg/day, listed as febuxostat)?
A: at least 0.22 flares per patient month

Q: And the “Subjects that required treatment for at least one gout flare” value ([1]; 120 mg/day, out of 250 subjects)?
A: 90

Q: And the “Flares per patient month” value ([1]; 120 mg/day)?
A: 0.36 flares per patient month

Q: What about the “Flares per patient month” value ([1]; 120 mg/day, listed as febuxostat) of the same molecule?
A: ≥ 0.36 flares per patient month

Q: Which “Patients with gout flares requiring treatment in a month” value (“Patients” below) ([2]; 200 mg daily, out of 46 patients) does the source give for `O=C(O)CSc1nnc(Br)n1-c1ccc(C2CC2)c2ccccc12` [Lesinurad, lesinurad] here?
A: 10

Q: What about the “Time of efficacy (area under curve of mean AIN levels over time)” value ([2]; 200 mg/day) of the same molecule?
A: 158.5

Q: What about the “Flares per patient month” value ([2]; 200 mg/day) of the same molecule?
A: 0.22 flares per patient month

Q: And the “Patients” value ([2]; 400 mg daily, out of 42 patients)?
A: 13

Q: And the “Time of efficacy (area under curve of mean AIN levels over time)” value ([2]; 400 mg/day)?
A: 165.8

Q: What about the “Flares per patient month” value ([2]; 400 mg/day) of the same molecule?
A: 0.31 flares per patient month

Q: What about the “Patients” value ([2]; 600 mg daily, out of 48 patients) of the same molecule?
A: 15

Q: And the “Time of efficacy (area under curve of mean AIN levels over time)” value ([2]; 600 mg/day)?
A: 167.5

Q: What about the “Flares per patient month” value ([2]; 600 mg/day) of the same molecule?
A: 0.31 flares per patient month

Q: With “Recombinant Pegylated Candida Urate Oxidase [pegsiticase]” as the molecule, how does the Uric acid levels ([3]; after the first dose in the treatment period) read?
A: below 6 mg/dl

Q: What about the Uric acid levels ([3]; subsequent doses in the treatment period and challenge period) of the same molecule?
A: > 6 mg/dL

Q: And the “Uricase specific ADA levels (antibody formation)” value ([3]; uricase deficient mice, treatment period (days 0, 7, 14) and challenge period (days 35, 42))?
A: developed uricase specific ADAs

Q: And the “Subjects that returned to baseline serum uric acid levels by day 30” value ([4]; Cohort #9: pegsiticase alone 0.4 mg/kg)?
A: four of the five

Q: What about the “Enzyme activity past day 14” value ([4]; pegsiticase alone 0.4 mg/kg, Cohort #3 Phase 1a and Cohort #9 Phase 1b) of the same molecule?
A: loose the enzyme activity

Q: What about the “Uricase specific ADA formation” value ([4]; pegsiticase alone 0.4 mg/kg, Cohort #3 Phase 1a and Cohort #9 Phase 1b, resulting in return to baseline serum uric acid) of the same molecule?
A: uricase specific ADA formation at day 14

Q: What about the “Serum uric acid, initial control” value ([4]; pegsiticase alone 0.4 mg/kg, Cohort #3 Phase 1a and Cohort #9 Phase 1b, up to day 14) of the same molecule?
A: below 6 mg/dL

Q: What about the “Treatment periods with maximum antibody titers <1080” value ([5]; 28-day cycles, SEL-212 111/133, pegylated uricase alone 1/7 treatment periods) of the same molecule?
A: 14.3%

Q: What about the Anti-uricase antibodies ([5]; pegylated uricase alone, discontinued from the study within the first two months) of the same molecule?
A: developed high titer antibodies

Q: And the “Average uricase activity AUC” value [6]?
A: 3437 mU/dL*wk

Q: What about the “Uricase specific ADAs” value [7] of the same molecule?
A: high levels of uricase specific ADAs

Q: And the “Flare in 1st month” value ([8]; individual subject with history of gout, SEL-037 0.8 mg/kg)?
A: no

Q: What about the “Flare in 1st month” value ([8]; individual subjects with history of gout, SEL-037 0.1 mg/kg, 0.1 mg/kg) of the same molecule?
A: no and yes (2×) and yes (positive for

Q: And the “Flare in 1st month” value ([8]; individual subjects with history of gout, SEL-037 0.2 mg/kg, 0.2 mg/kg)?
A: no and yes (mild gout, right

Q: And the “Subjects with a history of gout with signs of gout flare in the first month” value ([8]; pegsiticase alone, 4 out of 7 patients)?
A: 57%

Q: What about the “Onset of reduction of average serum uric acid levels” value ([8]; single IV infusion, 0.1 to 1.2 mg/kg) of the same molecule?
A: within hours

Q: And the “Serious adverse events and tolerability” value ([8]; single IV infusion, five dose levels 0.1 to 1.2 mg/kg)?
A: no serious adverse events and was well tolerated

Q: And the “Uricase specific ADAs” value ([8]; single IV infusion, varying levels)?
A: induced uricase specific ADAs in all subjects

Q: And the “Serum uric acid maintained” value ([8]; tolerated dose, 30 day period, in the absence of inhibitory uricase specific ADAs)?
A: < 6 mg/dL

Q: With pegloticase [KRYSTEXXA®] as the molecule, how does the “Treated subjects that developed ADAs” value ([9]; all KRYSTEXXA-treated subjects) read?
A: 89%

Q: What about the “Flares per patient over the first 3 months” value ([9]; biweekly pegloticase, 85 patients) of the same molecule?
A: 2.3 flares per patient

Q: What about the “Time of efficacy (area under curve of mean AIN levels over time)” value ([9]; biweekly, nonresponders) of the same molecule?
A: Nonresponders-84.35

Q: What about the “Time of efficacy (area under curve of mean AIN levels over time)” value ([9]; biweekly, responders) of the same molecule?
A: Responders-26.6

Q: What about the “Flares per patient month” value ([9]; biweekly) of the same molecule?
A: 0.77 flares per patient month

Q: And the “Subjects classified as non-responders” value ([9]; monthly dosing cohorts)?
A: 65%

Q: What about the “Subjects classified as responders (uric acid below 6 mg/dl for 80% of the time at months three and six)” value ([9]; monthly dosing cohorts) of the same molecule?
A: 35%

Q: What about the “Mean uric acid levels at four weeks” value ([9]; non-responders) of the same molecule?
A: above 6 mg/dl

Q: And the “Mean uric acid levels at four weeks” value ([9]; responders)?
A: above 4 mg/dl

Q: And the “Flares per patient over the first 3 months” value ([9]; monthly pegloticase, 84 patients)?
A: 2.7 flares per patient

Q: And the “Time of efficacy (area under curve of mean AIN levels over time)” value ([9]; monthly, nonresponders)?
A: Nonresponders-99.75

Q: What about the “Time of efficacy (area under curve of mean AIN levels over time)” value ([9]; monthly, responders) of the same molecule?
A: Responders-53.55

Q: What about the “Flares per patient month” value ([9]; monthly, listed as Pegloticase) of the same molecule?
A: 0.90 flares per patient month

Q: And the “Flares per patient month” value ([9]; monthly, listed as pegloticase)?
A: 0.9 flares per patient month
